The source of these data is patent US4950675A, “Pyridine di-mevalono-lactones as inhibitors of cholesterol biosynthesis” (Warner-Lambert Company, priority 1988, dated 1990).

Where a name gives a salt, the structure may show the parent alone.

Assay [1] addresses sterol synthesis by rat liver homogenate (HMG-CoA reductase). Description: CSX screen ("CSI" in Table 2): inhibition of sterol synthesis from 14C-acetate in rat liver homogenate. The assay is classed as biochemical. The note with it: 50% inhibition of sterol synthesis over a one-hour period. The method, then: The ability of compound s of the present invention to inhibit the biosynthesis of cholesterol was measured by a method (designated CSX screen) which utilizes the procedure described by R. E. Dugan, et al, Archiv. Biochem. Biophys., (1972), 152, 21-27. In this method, the level of HMG-CoA enzyme activity in standard laboratory rats is increased by feeding the rats a chow diet containing 5% cholestyramine for four days, after which the rats are sacrificed.
The rat livers are homogenized, and the incorporation of […] into nonsaponifiable lipid by the rat liver homogenate is measured. The micromolar concentration of compound required for 50% inhibition of sterol synthesis over a one-hour period is measured, and expressed as an IC50 value.

The test system of another assay is cholesterol synthesis. Put plainly: AICS screen: plasma [14C]cholesterol after oral dosing of cholestyramine-fed rats (inhibition of cholesterol synthesis). The assay is classed as in vivo. The note with it: male Sprague-Dawley rats fed 5% cholestyramine; for inhibition at 1 mg/kg: Rattus norvegicus. The method, then: The ability of compound s of the present invention to inhibit the biosynthesis of cholesterol was also measured by a method (designated AICS screen) which utilizes the procedure described by A. W. Alberts et al, Proc. Natl. Acad. Sci., (1980), 77, pp 3957-3961.
In this method male Sprague-Dawley rats (200 g body weight) previously fed 5% cholestyramine for three days were randomly divided into groups (N=5/group) and given a single dose of vehicle (controls) or compound by an oral gavage at the indicated doses. One hour after drug dosing, all rats were injected intraperitoneally with sodium[1-^14 C]-acetate (18.75 μCi/rat in 0.2 ml saline). After 50 minutes, blood samples were taken, plasma obtained by centrifugation, and plasma [^14 C] cholesterol measured after saponification and extraction.

For `CCc1nc(CC)c(/C=C/C(O)CC(O)CC(=O)O)c(-c2ccc(F)cc2)c1/C=C/C(O)CC(O)CC(=O)O` (stereo not drawn) [[R*,S*(E)]7,7'-[2,6-diethyl-4-(4-fluorophenyl)-3,5-pyridinediyl]bis[3,5-dihydroxy-6-heptenoic acid, disodium salt]], half-maximal inhibition in assay [1] (IC50) was put at 32 nM. Also, the inhibition at 1 mg/kg in the assay with cholesterol synthesis (Table 2, single oral gavage) was -16%.

As for `CC(C)c1nc(C(C)C)c(/C=C/C2CC(O)CC(=O)O2)c(-c2ccc(F)cc2)c1/C=C/C1CC(O)CC(=O)O1` (stereo not drawn) [6,6'-[[2,6-bis(1-methylethyl)-4-(4-fluorophenyl)-3,5-pyridinediyl]di-1,2-ethenediyl]bis [4α,6B(E)] tetrahydro-4-hydroxy-2H-pyran-2-one]], the inhibition at 1 mg/kg in the assay with cholesterol synthesis (Table 1, single oral gavage) is -65%.

In the case of `CCc1nc(CC)c(/C=C/C2CC(O)CC(=O)O2)c(-c2ccc(F)cc2)c1/C=C/C1CC(O)CC(=O)O1` (stereo not drawn) [6,6'-[2,6-diethyl-4-(4-fluorophenyl)-3,5-pyridinediyl]di[2,1-ethenediyl]bis[4α,6β(E)][tetrahydro-4-hydroxy-2H -pyran-2-one]], the inhibition at 1 mg/kg with cholesterol synthesis (Table 1, single oral gavage) is -3%.

Take `CC(C)c1nc(C(C)C)c(C=CC(O)CC(O)CC(=O)[O-])c(-c2ccc(F)cc2)c1C=CC(O)CC(O)CC(=O)[O-].[Na+].[Na+]` (stereo not drawn) [[R*,S*(E)]-7,7'-[2,6-bis(1-methylethyl)-2,4-(4-fluorophenyl)-3,5-pyridinediyl]bis [3,5-dihydroxy-6-heptenoio acid, disodium salt]]: the midpoint of inhibition in assay [1], the IC50, lay at 5.6 nM. Moreover, the “AICS % Inhibition of Cholesterol Synthesis” value in the assay on cholesterol synthesis (Table 2, 1.0 mg/kg, single oral gavage) is on record as -21%.

As usually defined, the IC50 is the concentration needed to halve the response being measured. For orientation: inhibition means the change of the read-out against control, counted positive when it falls.
